For 18 compounds, IC50 results are on record in patent US20250129078A1, “ERBB2 INHIBITORS” (Cogent Biosciences, Inc., priority 2023, published 2025).

SMILES strings stand for the structures. Structures can show the parent of a compound that is named as a salt. Where only a bound is given, the exact number is not on record here.

The target of the test is EGFR WT (Homo sapiens (Human), UniProt P00533). The experiment in a line: ErbB enzyme assay (CisBio HTRF-KinEASE-TK), EGFR WT. Type of test: biochemical. To be noted: ATP at Km (25 μM), 1 h incubation. The procedure, abridged: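 IC50 comes from a 4-parameter fit where the curve crosses 50 percent of control, using the 655/620 nm time-resolved fluorescence ratio with DMSO-only and pre-quenched references. Kinase reactions ran 1 h at ambient temperature before Sa-XL665/cryptate-antibody detection (1 h).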
In general terms: In TR-FRET formats the signal depends on donor and acceptor labels being close together.

Chain of EGFR WT (P00533 25-1210): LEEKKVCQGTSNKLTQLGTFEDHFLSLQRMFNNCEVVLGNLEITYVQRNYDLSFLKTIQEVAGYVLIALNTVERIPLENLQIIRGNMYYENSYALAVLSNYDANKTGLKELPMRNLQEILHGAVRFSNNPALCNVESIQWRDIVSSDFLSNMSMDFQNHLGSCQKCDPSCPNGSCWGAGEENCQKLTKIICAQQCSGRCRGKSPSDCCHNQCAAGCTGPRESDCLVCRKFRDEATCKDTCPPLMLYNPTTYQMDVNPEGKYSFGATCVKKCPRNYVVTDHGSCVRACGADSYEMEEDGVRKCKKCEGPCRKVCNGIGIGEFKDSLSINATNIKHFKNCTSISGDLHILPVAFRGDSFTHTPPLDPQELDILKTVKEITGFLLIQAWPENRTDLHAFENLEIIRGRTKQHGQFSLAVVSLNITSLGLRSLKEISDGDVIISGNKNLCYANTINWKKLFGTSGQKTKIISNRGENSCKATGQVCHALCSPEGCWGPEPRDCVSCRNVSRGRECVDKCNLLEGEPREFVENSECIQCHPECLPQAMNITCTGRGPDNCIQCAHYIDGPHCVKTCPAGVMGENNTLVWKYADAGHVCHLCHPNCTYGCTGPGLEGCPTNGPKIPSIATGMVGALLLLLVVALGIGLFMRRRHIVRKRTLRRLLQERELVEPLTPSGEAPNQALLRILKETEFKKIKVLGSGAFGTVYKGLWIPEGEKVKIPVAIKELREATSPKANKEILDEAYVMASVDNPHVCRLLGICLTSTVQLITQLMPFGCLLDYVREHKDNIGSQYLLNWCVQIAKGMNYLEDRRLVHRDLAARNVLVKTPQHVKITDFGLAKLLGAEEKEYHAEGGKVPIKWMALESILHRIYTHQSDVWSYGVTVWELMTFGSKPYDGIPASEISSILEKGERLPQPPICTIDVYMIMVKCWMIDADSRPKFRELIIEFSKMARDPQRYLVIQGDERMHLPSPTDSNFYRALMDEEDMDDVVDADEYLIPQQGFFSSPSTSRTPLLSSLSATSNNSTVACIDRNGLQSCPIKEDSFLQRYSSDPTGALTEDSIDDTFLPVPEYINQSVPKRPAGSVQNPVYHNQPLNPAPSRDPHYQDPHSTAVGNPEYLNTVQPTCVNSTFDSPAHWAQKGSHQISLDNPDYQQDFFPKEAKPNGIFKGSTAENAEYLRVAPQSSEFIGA

The IC50 is the concentration that gives 50% inhibition. For `C=CC(=O)N[C@H]1CN(c2ccc3ncnc(Nc4ccc(Oc5ccc6c(c5)nnn6C)c(C)c4F)c3n2)C[C@@H]1F` [Compound 300, N-((3S,4S)-4-fluoro-1-(4-((2-fluoro-3-methyl-4-((1-methyl-1H-benzo[d][1,2,3]triazol-5-yl)oxy)phenyl)amino)pyrido[3,2-d]pyrimidin-6-yl)pyrrolidin-3-yl)acrylamide], the IC50 was 100 to 500 nM.
The value for `C=CC(=O)N1CCN(c2ccc3ncnc(Nc4ccc(Oc5ccc6c(c5)nnn6C)c(C)c4)c3n2)C[C@H]1C` [Compound 73, (R)-1-(2-methyl-4-(4-((3-methyl-4-((1-methyl-1H-benzo[d][1,2,3]triazol-5-yl)oxy)phenyl)amino)pyrido[3,2-d]pyrimidin-6-yl)piperazin-1-yl)prop-2-en-1-one] was 100 to 500 nM; that for `C=CC(=O)N1CCN(c2ccc3ncnc(Nc4ccc(Oc5ccc6c(c5)nnn6C)c(C)c4)c3n2)C2CC21` (stereo not drawn) [Compound 75, 1-(5-(4-((3-methyl-4-((1-methyl-1H-benzo[d][1,2,3]triazol-5-yl)oxy)phenyl)amino)pyrido[3,2-d]pyrimidin-6-yl)-2,5-diazabicyclo[4.1.0]heptan-2-yl)prop-2-en-1-one] was below 50 nM.
The result for `C=CC(=O)N[C@@H]1CCN(c2ncc3ncnc(Nc4ccc(Oc5ccc6c(c5)nnn6C)c(C)c4)c3n2)C1` [Compound 153, (R)-N-(1-(8-((3-methyl-4-((1-methyl-1H-benzo[d][1,2,3]triazol-5-yl)oxy)phenyl)amino)pyrimido [5,4-d]pyrimidin-2-yl)pyrrolidin-3-yl)acrylamide] reads 100 to 500 nM; that for `C=CC(=O)N1C2C=C(c3ccc4ncnc(Nc5ccc(Oc6ccc7c(c6)nnn7C)c(C)c5)c4n3)CC1COC2` (stereo not drawn) [Compound 408, 1-(7-(4-((3-methyl-4-((1-methyl-1H-benzo[d][1,2,3]triazol-5-yl)oxy)phenyl)amino)pyrido[3,2-d]pyrimidin-6-yl)-3-oxa-9-azabicyclo[3.3.1]non-6-en-9-yl)prop-2-en-1-one trifluoroacetate], 100 to 500 nM; that for `C=CC(=O)N[C@@H]1CN(c2ccc3ncnc(Nc4ccc(Oc5ccc6c(c5)nnn6C)c(C)c4F)c3n2)CC[C@H]1C` (single isomer, unassigned) [Compound 347], 100 to 500 nM.
The result for `Cc1cc(Nc2ncnc3ccc(N4CCN(C(=O)/C=C/C(F)F)[C@H](C)C4)nc23)ccc1Oc1ccc2c(c1)nnn2C` [Compound 368, (R,E)-4,4-difluoro-1-(2-methyl-4-(4-((3-methyl-4-((1-methyl-1H-benzo[d][1,2,3]triazol-5-yl)oxy)phenyl)amino)pyrido[3,2-d]pyrimidin-6-yl)piperazin-1-yl)but-2-en-1-one] reads 50 to 100 nM; that for `C=CC(=O)N1CCN(c2ncc3ncnc(Nc4ccc(Oc5ccn6ncnc6c5)c(C)c4)c3c2F)CC1` [Compound 100, 1-(4-(4-((4-([1,2,4]triazolo[1,5-a]pyridin-7-yloxy)-3-methylphenyl)amino)-5-fluoropyrido[3,4-d]pyrimidin-6-yl)piperazin-1-yl)prop-2-en-1-one], 500 to 1000 nM; that for `C=CC(=O)N[C@H]1CN(c2ccc3ncnc(Nc4ccc(Oc5ccc6c(c5)nnn6C)c(C)c4F)c3n2)CC[C@H]1C` [Compound 341, N-((3R,4R)-1-(4-((2-fluoro-3-methyl-4-((1-methyl-1H-benzo[d][1,2,3]triazol-5-yl)oxy)phenyl)amino)pyrido[3,2-d]pyrimidin-6-yl)-4-methylpiperidin-3-yl)acrylamide], at least 1000 nM.
As for `C=CC(=O)N1CCN(c2ccc3ncnc(Nc4cc(F)c(Oc5ccc6c(c5)nnn6C)c(Cl)c4)c3n2)C[C@H]1C` [Compound 252, (R)-1-(4-(4-((3-chloro-5-fluoro-4-((1-methyl-1H-benzo[d][1,2,3]triazol-5-yl)oxy)phenyl)amino)pyrido[3,2-d]pyrimidin-6-yl)-2-methylpiperazin-1-yl)prop-2-en-1-one], the IC50 fell in the range of 50 to 100 nM.
The result for `C=CC(=O)N1CCN(c2ncc3ncnc(Nc4ccc(Oc5ccc6c(c5)nnn6C)c(C)c4)c3n2)C[C@@H]1COC` [Compound 116, (R)-1-(2-(methoxymethyl)-4-(8-((3-methyl-4-((1-methyl-1H-benzo[d][1,2,3]triazol-5-yl)oxy)phenyl)amino)pyrimido[5,4-d]pyrimidin-2-y1)piperazin-1-yl)prop-2-en-1-one] reads 100 to 500 nM.
The result for `COC[C@@H]1CN(c2ccc3ncnc(Nc4ccc(Oc5ccc6c(c5)nnn6C)c(C)c4F)c3n2)CCN1C(=O)/C=C/CF` [Compound 361, (S,E)-4-fluoro-1-(4-(4-((2-fluoro-3-methyl-4-((1-methyl-1H-benzo[d][1,2,3]triazol-5-yl)oxy)phenyl)amino)pyrido[3,2-d]pyrimidin-6-yl)-2-(methoxymethyl)piperazin-1-yl)but-2-en-1-one] reads 50 to 100 nM; that for `C=C(F)C(=O)N1C2C=C(c3ccc4ncnc(Nc5ccc(Oc6ccc7c(c6)nnn7C)c(C)c5)c4n3)CC1COC2` (stereo not drawn) [Compound 410, 2-fluoro-1-(7-(4-((3-methyl-4-((1-methyl-1H-benzo[d][1,2,3]triazol-5-yl)oxy)phenyl)amino)pyrido[3,2-d]pyrimidin-6-yl)-3-oxa-9-azabicyclo[3.3.1]non-6-en-9-yl)prop-2-en-1-one trifluoroacetate], at least 1000 nM.
For `C=CC(=O)N[C@H]1CCN(c2ccc3ncnc(Nc4ccc(Oc5ccc6c(c5)nnn6C)c(C)c4F)c3n2)C[C@H]1F` [Compound 281, N-((3R,4S)-3-fluoro-1-(4-((2-fluoro-3-methyl-4-((1-methyl-1H-benzo[d][1,2,3]triazol-5-yl)oxy)phenyl)amino)pyrido[3,2-d]pyrimidin-6-yl)piperidin-4-yl)acrylamide], the IC50 is below 50 nM.
The value for `C=C(F)C(=O)N1C2CCC1CN(c1ncc3ncnc(Nc4ccc(Oc5ccc6c(c5)nnn6C)c(C)c4)c3n1)C2` [Compound 51, 2-fluoro-1-(3-(8-((3-methyl-4-((1-methyl-1H-benzo[d][1,2,3]triazol-5-yl)oxy)phenyl)amino)pyrimido [5,4-d]pyrimidin-2-yl)-3,8-diazabicyclo [3.2.1]octan-8-yl)prop-2-en-1-one 2,2,2-trifluoroacetate] was at least 1000 nM.
In turn, `C=CC(=O)N1CCN(c2nc3c(Nc4ccc(Oc5ccc6c(c5)nnn6C)c(C)c4)ncnc3cc2F)CC1` [Compound 373, 1-(4-(7-fluoro-4-((3-methyl-4-((1-methyl-1H-benzo[d][1,2,3]triazol-5-yl)oxy)phenyl)amino)pyrido[3,2-d]pyrimidin-6-yl)piperazin-1-yl)prop-2-en-1-one] came in with an IC50 of 100 to 500 nM.
As to `C=CC(=O)N1CCN(c2ncc3ncnc(Nc4ccc(Oc5ccc6c(c5)nnn6C)cc4Cl)c3n2)CC1` [Compound 29, 1-(4-(8-((2-chloro-4-((1-methyl-1H-benzo[d][1,2,3]triazol-5-yl)oxy)phenyl)amino)pyrimido[5,4-d]pyrimidin-2-yl)piperazin-1-yl)prop-2-en-1-one], the concentration for half-maximal inhibition (IC50) is at least 1000 nM.
The value for `C=CC(=O)N1CCN(c2ncc3ncnc(Nc4ccc(Oc5cc6nnn(C)c6c(C)c5F)c(C)c4)c3n2)C[C@H]1C` [Compound 236, (R)-1-(4-(8-((4-((6-fluoro-1,7-dimethyl-1H-benzo[d][1,2,3]triazol-5-yl)oxy)-3-methylphenyl)amino)pyrimido[5,4-d]pyrimidin-2-yl)-2-methylpiperazin-1-yl)prop-2-en-1-one] was 100 to 500 nM.
